# Laboratory results reported in patent US20200377568A1, “Novel IL-4-/IL-13-derived peptide compounds for the treatment or prevention of neurodegenerative or neuroinflammatory diseases” (Universitätsmedizin der Johannes Gutenberg-Universität Mainz, priority 2018, published 2020).
# Assays:
# [1] = tested on: hippocampal cell line HT22; assay: CellTiter-blue cell viability assay (ctb), hippocampal cell line; format: cell-based; conditions: HT22 cells, increasing concentrations, FIG. 2B
# Experimental: (§1) Toxicity was checked by subjecting mouse embryonic fibroblasts (Mef) and the hippocampal cell line HT22 to a CellTiter-blue cell viability assay (ctb).
# (§2) Mouse embryonic fibroblasts (Mef) (Sigma-Aldrich) and hippocampal HT22 (ThermoScientific) cells were cultured according to the manufacturer's protocols. Ctb assays were performed according to the manufacturer's protocols (Promega).
# [2] = tested on: corticospinal tract axons; assay: Analysis of axon swellings in spinal cords of EAE mice; format: in vivo, mouse; conditions: EAE mice treated during the chronic phase, FIG. 7A
# Experimental: A: Histological analysis of corticospinal tract axons in spinal cords of EAE mice treated during the chronic phase of the disease.
# EAE experiments were performed by immunizing YFP-H mice, that express yellow fluorescent protein in corticospinal neurons, with MOG35-55. Mice were treated with IL-4 or PBS as described above. At the last treatment day, the mice were sacrificed with an overdose of anaesthesia and transcardially perfused with 4% paraformaldehyde. Spinal cords were dissected and further processed for cryosectioning. YFP-labelled corticospinal tract axons were photographed using the Keyence BZ-9000 microscope. For quantification of axon swellings, thresholds were set in ImageJ so that stained pixels were highlighted. Thresholded swellings were counted using the ImageJ plug-in “particle analysis”.
# [3] = tested on: dissociated cortical neurons; assay: Phosphorylation of signalling molecules (Western blot); format: cell-based, mouse; conditions: 50 ng/ml, 10 min treatment, FIG. 5B
# Experimental: A: Cortical outgrowth in response to 50 ng/ml IL-4, Link4, or Link13, compared to PBS control. The increase in growth at 48 h was calculated over the basal (untreated) growth at 24 h. B: Effects on phosphorylation of signalling molecules after 10 min treatment of dissociated cortical neurons with IL-4, Link4 or PBS.
# Neonatal (P1-3) cortex explants were dissected from 250 μm thick vibratome (HM650V, Thermo Fisher) sections from Bregma 0 to −1.5 (motor cortex). Cortical layer V was micro-dissected, plated on poly-D-lysine (0.5 mg/ml) and laminin (1 mg/ml)-coated glass coverslips and grown for 24 h in neurobasal medium with 2% horse serum, 2% B27, 1% glutamax and 0.5% penicillin/streptomycin. Explants were treated for 48 h with rIL-4 (50 ng/ml), Link4 (50 ng/ml), Link13 (50 ng/ml) or PBS. Axon length was assessed using Adobe Photoshop by measuring the distance of the 40 longest axons, corrected for the initial growth at 24 h. […]
# For Western blotting, the following primary antibodies were used: anti-IRS1 (EMD Millipore), anti-phospho-IRS1 (Cell Signaling Technology), anti-MAPK and anti-phospho-MAPK (Cell Signaling Technology), anti-PKCγ (Santa-Cruz), anti-phospho-PKCγ (Biozol). DyLight […]-coupled secondary antibodies were used for quantitative analysis of the proteins using the Li-Cor Odyssey FC imaging system (Li-Cor Bioscience). […]
# [4] = tested on: immune cells isolated from central nervous system (CNS); assay: FACS of immune cells from CNS of EAE mice after nasal treatment; format: in vivo, mouse; conditions: CNS (brain and spinal cord), intranasal treatment of EAE mice
# Experimental: A-B: Effects of incubation with IL-4 and different concentrations of Link4 and Link13 on the differentiation of A: CD11b^+ bone marrow-derived macrophages (BMDMs) into F80^+CD206^+ cells, and B: CD4^+ T cells into Gata3^+ cells. C-D: FACS results for different populations of T cells and CD11b^+MHCII^+ monocytes/macrophages/microglia of immune cells isolated from C: spleen and D: central nervous system (CNS) of EAE mice treated with PBS, IL-4 or Link4.
# Subsequently, the effects of IL-4 and Link4 on immune cells were analysed when applied intranasally, similarly as in FIG. 3B. Since nasally applied treatments can enter the periphery (lungs, blood stream) it was of utmost importance to check whether the substances affected the lymphocyte populations in the spleen. A reduction was found of CD8^+ cytotoxic T-cells for Link4, whereas all CD4^+ T helper cell types were unchanged. The CD11 b+MHCII+ population of monocytes/macrophages was also not changed.
# CNS and spleens were removed from EAE mice treated with nasal IL-4, Link4 or PBS at d35 and immune cells were isolated as previously described (M. Paterka, J. O. Voss, J. Werr, E. Reuter, S. Franck, T. Leuenberger, J. Herz, H. Radbruch, T. Bopp, V. Siffrin, and F. Zipp, Dendritic cells tip the balance towards induction of regulatory T cells upon priming in experimental autoimmune encephalomyelitis. J Autoimmun 67, 108-114 (2017)). […]
# [5] = tested on: mouse embryonic fibroblasts (Mef); assay: CellTiter-blue cell viability assay (ctb), fibroblasts; format: cell-based; conditions: Mef cells, increasing concentrations, FIG. 2A
# Experimental: as §1, §2
sequence,measurement,setting,value
RARSEIIGIGSKSIMQMDY (listed as Mus musculus) [Link4],toxic effects on hippocampal neurons (cell viability),[1],no toxic effects
same,number of axon swellings,[2],significantly reduced
same,phosphorylation of signalling molecules (neuronal signalling),[3],same neuronal signalling effects as IL-4
same,IL-10+ cells,[4],significant rise
same,toxic effects on fibroblasts (cell viability),[5],no toxic effects
